Experimental data taken from the supplement of paper PMC11061612.

Assays:
Olaparib = compound: O=C(c1cc(Cc2n[nH]c(=O)c3ccccc23)ccc1F)N1CCN(C(=O)C2CC2)CC1 [Olaparib]; conditions: max 10 µM
In short: (§1)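 Following 24 hours at 37°C and 5% CO2, cancer cell lines in 1536-well plates with 7.5 μl DMEM/F12 or RPMI and 10% FBS were dosed for 72 hours, final DMSO typically being 0.2%. CellTiter-Glo 2.0 luminescence, scaled between blank-well and DMSO-well means, gave the viability readout. Dose responses were fitted to a two-parameter logistic curve with a non-linear mixed effects model, and the single-agent IC50 was derived from this fit.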

Selumetinib = compound: Cn1cnc2c(F)c(Nc3ccc(Br)cc3Cl)c(C(=O)NOCCO)cc21 [Selumetinib]; conditions: max 10 µM
In short: as §1

AZD2811 = compound: CCN(CCO)CCCOc1ccc2c(Nc3cc(CC(=O)Nc4cccc(F)c4)[nH]n3)ncnc2c1 [AZD2811]; conditions: max 1 µM
In short: as §1

SG3199 = compound: CC1=CN2[C@@H](C1)C=NC3=CC(=C(C=C3C2=O)OC)OCCCCCOC4=C(C=C5C(=C4)N=C[C@@H]6CC(=CN6C5=O)C)OC [SG3199]; conditions: max 0.001 µM
In short: as §1

Trametinib = compound: CC(=O)Nc1cccc(-n2c(=O)n(C3CC3)c(=O)c3c(Nc4ccc(I)cc4F)n(C)c(=O)c(C)c32)c1 [Trametinib]; conditions: max 1 µM
In short: as §1

Palbociclib = compound: CC(=O)c1c(C)c2cnc(Nc3ccc(N4CCNCC4)cn3)nc2n(C2CCCC2)c1=O [Palbociclib]; conditions: max 10 µM
In short: as §1

Doxorubicin = compound: COc1cccc2c1C(=O)c1c(O)c3c(c(O)c1C2=O)C[C@@](O)(C(=O)CO)C[C@@H]3O[C@H]1C[C@H](N)[C@H](O)[C@H](C)O1 [Doxorubicin]; conditions: max 1 µM
In short: as §1

Taselisib = compound: Cc1nc(-c2cn3c(n2)-c2ccc(-c4cnn(C(C)(C)C(N)=O)c4)cc2OCC3)n(C(C)C)n1 [Taselisib]; conditions: max 10 µM
In short: as §1

AZD6738 = compound: C[C@@H]1COCCN1C2=NC(=NC(=C2)C3(CC3)[S@](=N)(=O)C)C4=C5C=CNC5=NC=C4 [AZD6738]; conditions: max 10 µM
In short: as §1

AZD0156 = compound: CN(C)CCCOc1ccc(-c2ccc3ncc4c(c3c2)n(C2CCOCC2)c(=O)n4C)cn1 [AZD0156]; conditions: max 3 µM
In short: as §1

Prexasertib = compound: COc1cccc(OCCCN)c1-c1cc(Nc2cnc(C#N)cn2)n[nH]1 [Prexasertib]; conditions: max 1 µM
In short: as §1

Venetoclax = compound: CC1(C)CCC(CN2CCN(c3ccc(C(=O)NS(=O)(=O)c4ccc(NCC5CCOCC5)c([N+](=O)[O-])c4)c(Oc4cnc5[nH]ccc5c4)c3)CC2)=C(c2ccc(Cl)cc2)C1 [Venetoclax]; conditions: max 1 µM
In short: as §1

AZD4320 = compound: CN(CC[C@H](CSC1=CC=CC=C1)NC2=C(C=C(C=C2)S(=O)(=O)NC(=O)C3=CC=C(C=C3)N4CCC(CC4)[C@H](C5=CC=CC=C5C6=CC=C(C=C6)Cl)O)S(=O)(=O)C(F)(F)F)CCO [AZD4320]; conditions: max 1 µM
In short: as §1

AZD5991 = compound: Cc1c2c(nn1C)CSCc1cc(n(C)n1)CSc1cc(c3ccccc3c1)OCCCc1c(C(=O)O)n(C)c3c-2c(Cl)ccc13 [AZD5991]; conditions: max 1 µM
In short: as §1

MK-2206 = compound: NC1(c2ccc(-c3nc4ccn5c(=O)[nH]nc5c4cc3-c3ccccc3)cc2)CCC1 [MK-2206]; conditions: max 10 µM
In short: as §1

SN-38 = compound: CCc1c2c(nc3ccc(O)cc13)-c1cc3c(c(=O)n1C2)COC(=O)[C@]3(O)CC [SN-38]; conditions: max 0.3 µM
In short: as §1

AZD1775 = compound: C=CCn1c(=O)c2cnc(Nc3ccc(N4CCN(C)CC4)cc3)nc2n1-c1cccc(C(C)(C)O)n1 [AZD1775]; conditions: max 3 µM
In short: as §1

Dasatinib = compound: CC1=C(C(=CC=C1)Cl)NC(=O)C2=CN=C(S2)NC3=CC(=NC(=N3)C)N4CCN(CC4)CCO [Dasatinib]; conditions: max 2 µM
In short: as §1

Alisertib = compound: COc1cc(Nc2ncc3c(n2)-c2ccc(Cl)cc2C(c2c(F)cccc2OC)=NC3)ccc1C(=O)O [Alisertib]; conditions: max 10 µM
In short: as §1

AZD1390 = compound: CC(C)n1c(=O)n(C)c2cnc3cc(F)c(-c4ccc(OCCCN5CCCCC5)nc4)cc3c21 [AZD1390]; conditions: max 0.3 µM
In short: as §1

Crizotinib = compound: C[C@@H](Oc1cc(-c2cnn(C3CCNCC3)c2)cnc1N)c1c(Cl)ccc(F)c1Cl [Crizotinib]; conditions: max 10 µM
In short: as §1

AZD5153 = compound: COc1nnc2ccc(N3CCC(c4ccc(OCCN5CCN(C)C(=O)[C@H]5C)cc4)CC3)nn12 [AZD5153]; conditions: max 1 µM
In short: as §1

Capivasertib = compound: C1CN(CCC1(C(=O)N[C@@H](CCO)C2=CC=C(C=C2)Cl)N)C3=NC=NC4=C3C=CN4 [Capivasertib]; conditions: max 10 µM
In short: as §1

Savolitinib = compound: C[C@@H](c1ccc2nccn2c1)n1nnc2ncc(-c3cnn(C)c3)nc21 [Savolitinib]; conditions: max 1 µM
In short: as §1

AZD7648 = compound: Cc1cc2ncnn2cc1Nc1ncc2c(n1)n(C1CCOCC1)c(=O)n2C [AZD7648]; conditions: max 10 µM
In short: as §1

AZD8186 = compound: C[C@@H](Nc1cc(F)cc(F)c1)c1cc(C(=O)N(C)C)cc2c(=O)cc(N3CCOCC3)oc12 [AZD8186]; conditions: max 3 µM
In short: as §1

Gefitinib = compound: COc1cc2ncnc(Nc3ccc(F)c(Cl)c3)c2cc1OCCCN1CCOCC1 [Gefitinib]; conditions: max 10 µM
In short: as §1

Lapatinib = compound: CS(=O)(=O)CCNCc1ccc(-c2ccc3ncnc(Nc4ccc(OCc5cccc(F)c5)c(Cl)c4)c3c2)o1 [Lapatinib]; conditions: max 10 µM
In short: as §1

Cell Line	IC50, cell viability 72 h (Olaparib)	IC50, cell viability 72 h (Selumetinib)	IC50, cell viability 72 h (AZD2811)	IC50, cell viability 72 h (SG3199)	IC50, cell viability 72 h (Trametinib)	IC50, cell viability 72 h (Palbociclib)	IC50, cell viability 72 h (Doxorubicin)	IC50, cell viability 72 h (Taselisib)	IC50, cell viability 72 h (AZD6738)	IC50, cell viability 72 h (AZD0156)	IC50, cell viability 72 h (Prexasertib)	IC50, cell viability 72 h (Venetoclax)	IC50, cell viability 72 h (AZD4320)	IC50, cell viability 72 h (AZD5991)	IC50, cell viability 72 h (MK-2206)	IC50, cell viability 72 h (SN-38)	IC50, cell viability 72 h (AZD1775)	IC50, cell viability 72 h (Dasatinib)	IC50, cell viability 72 h (Alisertib)	IC50, cell viability 72 h (AZD1390)	IC50, cell viability 72 h (Crizotinib)	IC50, cell viability 72 h (AZD5153)	IC50, cell viability 72 h (Capivasertib)	IC50, cell viability 72 h (Savolitinib)	IC50, cell viability 72 h (AZD7648)	IC50, cell viability 72 h (AZD8186)	IC50, cell viability 72 h (Gefitinib)	IC50, cell viability 72 h (Lapatinib)
HCC1806 (Breast Carcinoma)	> 10 µM	> 10 µM	> 1000 nM	> 1 nM	> 1000 nM	> 10 µM	258 nM	7.68 µM	1.08 µM	> 3000 nM	6.18 nM	> 1000 nM	> 1000 nM	> 1000 nM	> 10 µM	12.1 nM	271 nM	414 nM	> 10 µM	> 300 nM	9.23 µM	301 nM	> 10 µM	> 1000 nM	> 10 µM	> 3000 nM	> 10 µM	6.2 µM
HuP-T4 (Pancreatic Carcinoma)	> 10 µM	> 10 µM	> 1000 nM	> 1 nM	> 1000 nM	> 10 µM	946 nM	> 10 µM	> 10 µM	> 3000 nM	175 nM	> 1000 nM	> 1000 nM	> 1000 nM	–	8.7 nM	1000 nM	> 2000 nM	> 10 µM	> 300 nM	> 10 µM	> 1000 nM	> 10 µM	> 1000 nM	> 10 µM	> 3000 nM	> 10 µM	> 10 µM
KP-1N (Pancreatic Carcinoma)	> 10 µM	> 10 µM	> 1000 nM	> 1 nM	> 1000 nM	> 10 µM	> 1000 nM	> 10 µM	> 10 µM	> 3000 nM	> 1000 nM	> 1000 nM	> 1000 nM	> 1000 nM	–	> 300 nM	> 3000 nM	> 2000 nM	> 10 µM	> 300 nM	> 10 µM	> 1000 nM	> 10 µM	> 1000 nM	> 10 µM	> 3000 nM	> 10 µM	> 10 µM
KYSE-520 (Esophageal Squamous Cell Carcinoma)	> 10 µM	> 10 µM	> 1000 nM	> 1 nM	181 nM	> 10 µM	> 1000 nM	1.25 µM	> 10 µM	> 3000 nM	116 nM	> 1000 nM	> 1000 nM	> 1000 nM	–	> 300 nM	> 3000 nM	233 nM	> 10 µM	> 300 nM	> 10 µM	278 nM	> 10 µM	> 1000 nM	> 10 µM	> 3000 nM	3.92 µM	3.08 µM
